Results: US6008372A, “Substituted dinaphthylmethyl and diheteroarylmethylacetyl histidine inhibitors of protein farnesyltransferase” (Warner-Lambert Company, priority 1998, dated 1999)
Structures can show the parent of a compound that is named as a salt. Where two headings read alike, the source gives them in different places.

Experiments:
[1] = tested on: Ras farnesylation in H-ras-NIH3T3 cells; assay: Gel shift assay: inhibition of Ras farnesylation in H-ras-NIH3T3 cells; type: cell-based; settings: 18-hour incubation, read-out: Inhibition of Ras Farnesylation (Minimum Effective Dose)
Experimental: (§1) Twenty-four hours after planting 2×10^6 ras-transformed cells per treatment condition, the farnesylation inhibitor is added at varying concentrations. Following an 18-hour incubation period, cells are lysed in phosphate-buffered saline containing 1% Triton X-100, 0.5% sodium deoxycholate, and 0.1% SDS, pH 7.4 in the presence of several protease inhibitors (PMSF, antipain, leupeptin, pepstatin A, and aprotinin all at 1 μg/mL). Ras protein is immunoprecipitated from the supernatants by the addition of 3 μg v-H-ras Ab-2 (Y13-259 antibody from Oncogene Science). After overnight immunoprecipitation, 30 μL of a 50% protein G-Sepharose slurry (Pharmacia) is added followed by 45-minute incubation. Pellets are resuspended in 2× tris-glycine loading buffer (Novex) containing 5% B-mercaptoethanol and then denatured by 5 minutes boiling prior to electrophoresis on 14% Tris-glycine SDS gels. Using Western transfer techniques, proteins are transferred to nitrocellulose membranes followed by blocking in blocking buffer. Upon overnight incubation with primary antibody (pan-ras Ab-2 from Oncogene Science), an antimouse HRP conjugate secondary antibody (Amersham) is employed for detection of the ras protein. Blots are developed using ECL techniques (Amersham).
(§2) The data in Table 1 show farnesyl protein transferase inhibitory activity, and activity in the gel shift assay against ras protein of selected compounds of Formula I.

[2] = tested on: Ras farnesylation in H-ras Me 12/+ cells; assay: Gel shift assay: inhibition of Ras farnesylation in H-ras Me 12/+ cells; type: cell-based; settings: 18-hour incubation, read-out: Inhibition of Ras Farnesylation (Minimum Effective Dose)
Experimental: as §1, §2

[3] = molecular target: T1, rat brain farnesyl protein transferase (Rattus norvegicus, UniProt Q02293+Q04631); assay: Protein:farnesyltransferase (PFT/FPT) inhibitory activity assay; type: biochemical
T1 construct: 40-fold purified rat brain farnesyl protein transferase; from tissue; host or cells: rat brain

[4] = tested on: human lung carcinoma with a k-ras mutation; settings: nude mice; cited from earlier work
[5] = Hepes (without 5 mM phosphate), read-out: Farnesyl Protein Transferase Inhibition, Hepes, IC50
[6] = Hepes/5 mM PO4^-3, pH 7.4, read-out: Farnesyl Protein Transferase Inhibition, Hepes/5 mM PO4^-3, IC50

Row | IC50 [3, 5] [nM] | IC50 [3, 6] [nM] | Compound | minimal effective concentration [1] [µM] | minimal effective concentration [2] [µM] | blocks the growth of a human lung carcinoma with a k-ras mutation [4]
1 | 260 | 300 | COC(=O)[C@H](Cc1c[nH]cn1)NC(=O)C(Cc1cccc2ccccc12)Cc1cccc2ccccc12 [Example 1, (S)-3-(1H-Imidazol-4-yl)-2-(3-naphthalen-1-yl-2-naphthalen-1-ylmethyl-propionylamino)-propionic acid, methyl ester] | 5 | 2.5 | –
2 | 130 | 130 | CCOC(=O)[C@H](Cc1c[nH]cn1)NC(=O)C(Cc1cccc2ccccc12)Cc1cccc2ccccc12 [Example 5, (S)-3-(1H-Imidazol-4-yl)-2-(3-naphthalen-1-yl-2-naphthalen-1-ylmethyl-propionylamino)-propionic acid, ethyl ester] | – | 2.5 | –
3 | 420 | 220 | COC(=O)[C@H](Cc1cncn1C)NC(=O)C(Cc1cccc2ccccc12)Cc1cccc2ccccc12 [Example 6, (S)-3-(3-Methyl-3H-imidazol-4-yl)-2-(3-naphthalen-1-yl-2-naphthalen-1-ylmethyl-propionylamino)-propionic acid, methyl ester] | 2.5 | 1 | –
4 | 110 | 100 | CCCOC(=O)[C@H](Cc1c[nH]cn1)NC(=O)C(Cc1cccc2ccccc12)Cc1cccc2ccccc12 [Example 7, (S)-3-(1H-Imidazol-4-yl)-2-(3-naphthalen-1-yl-2-naphthalen-1-ylmethyl-propionylamino)-propionic acid, propyl ester] | – | 5 | –
5 | 180 | 160 | CC(C)OC(=O)[C@H](Cc1c[nH]cn1)NC(=O)C(Cc1cccc2ccccc12)Cc1cccc2ccccc12 [Example 8, (S)-3-(1H-Imidazol-4-yl)-2-(3-naphthalen-1-yl-2-naphthalen-1-ylmethyl-propionylamino)-propionic acid, isopropyl ester] | 5 | 5 | –
6 | 400 | 200 | C=CCOC(=O)[C@H](Cc1c[nH]cn1)NC(=O)C(Cc1cccc2ccccc12)Cc1cccc2ccccc12 [Example 15, (S)-3-(1H-Imidazol-4-yl)-2-(3-naphthalen-1-yl-2-naphthalen-1-ylmethyl-propionylamino)-propionic acid, allyl ester] | 25 | – | –
7 | 80 | 70 | N#CCCOC(=O)[C@H](Cc1c[nH]cn1)NC(=O)C(Cc1cccc2ccccc12)Cc1cccc2ccccc12 [Example 17, (S)-3-(1H-Imidazol-4-yl)-2-(3-naphthalen-1-yl-2-naphthalen-1-ylmethyl-propionylamino)-propionic acid, 2-cyanoethyl ester] | 10 | – | –
8 | 740 | 550 | O=C(N[C@@H](Cc1c[nH]cn1)C(=O)NCCOCc1ccccc1)C(Cc1cccc2ccccc12)Cc1cccc2ccccc12 [Example 23, (S)-N-[1-(2-Benzyloxy-ethylcarbamoyl)-2-(1H-imidazol-4-yl)-ethyl]-3-naphthalen-1-yl-2-naphthalen-1-ylmethyl-propionamide] | – | 5 | –
9 | 4800 | 3900 | O=C(N[C@@H](Cc1c[nH]cn1)C(=O)NCCc1c[nH]cn1)C(Cc1cccc2ccccc12)Cc1cccc2ccccc12 [Example 27, (S)-N-{2-(1H-Imidazol-4-yl)-1-[2-(1H-imidazol-4-yl)-ethylcarbamoyl]-ethyl}-3-naphthalen-1-yl-2-naphthalen-1-ylmethyl-propionamide] | – | 10 | –
10 | 610 | 440 | CNC(=O)[C@H](Cc1c[nH]cn1)NC(=O)C(Cc1cccc2ccccc12)Cc1cccc2ccccc12 [Example 33, (S)-N-[2-(1H-Imidazol-4-yl)-1-methylcarbamoyl-ethyl]-3-naphthalen-1-yl-2-naphthalen-1-ylmethyl-propionamide] | 1 | 1 | –
11 | 310 | 370 | COC(=O)[C@H](Cc1c[nH]cn1)NC(=O)C(CC1CCCC2CCCCC21)CC1CCCC2CCCCC21 (stereo partly drawn) [Example 36, (S)-2-[3-(Decahydro-naphthalen-1-yl)-2-(decahydro-naphthalen-1-ylmethyl)-propionylamino]-3-(1H-imidazol-4-yl)-propionic acid, methyl ester] | – | 25 | –
12 | 420 | 180 | COC(=O)[C@H](Cc1c[nH]cn1)NC(=O)C(Cc1cccc2c1CCCC2)Cc1cccc2c1CCCC2 [Example 37, (S)-3-(1H-Imidazol-4-yl)-2-[3-(5,6,7,8-tetrahydro-naphthalen-1-yl)-2-(5,6,7,8-tetrahydro-naphthalen-1-ylmethyl)-propionylamino]-propionic acid, methyl ester] | – | 10 | –
13 | 970 | 710 | N#CCCNC(=O)[C@H](Cc1c[nH]cn1)NC(=O)C(Cc1cccc2ccccc12)Cc1cccc2ccccc12 [Example 41, (S)-N-[1-(2-Cyano-ethylcarbamoyl)-2-(1H-imidazol-4-yl)-ethyl]-3-naphthalen-1-yl-2-naphthalen-1-ylmethyl-propionamide] | 5 | – | –
14 | 2000 | 2200 | COC(=O)[C@H](Cc1c[nH]cn1)N(C)C(=O)C(Cc1cccc2ccccc12)Cc1cccc2ccccc12 [Example 51, (S)-3-(1H-Imidazol-4-yl-2-[methyl-(3-naphthalen-1-yl-2-naphthalen-1-ylmethyl-propionyl)-amino]-propionic acid, methyl ester, trifluoroacetate] | 5 | – | –
15 | 3000 | 3400 | O=C(N[C@H](CO)Cc1c[nH]cn1)C(Cc1cccc2ccccc12)Cc1cccc2ccccc12 [Example 52, (S)-N-[1-Hydroxymethyl-2-(1H-imidazol-4-yl)-ethyl]-3-naphthalen-1-yl-2-naphthalen-1-ylmethyl-propionamide] | 25 | – | –
16 | 70 | 60 | O=C(N[C@@H](Cc1c[nH]cn1)C(=O)OCCc1ccccc1)C(Cc1cccc2ccccc12)Cc1cccc2ccccc12 [Example 53, (S)-3-(1H-Imidazol-4-yl)-2-(3-naphthalen-1-yl-2-naphthalen-1-ylmethyl-propionylamino)-propionic acid, phenethyl ester] | 25 | – | –
17 | 1600 | 2900 | COC(=O)[C@H](Cc1c[nH]cn1)NC(=O)C(Cc1ccccc1)Cc1cccc2ccccc12 (stereo partly drawn) [Example 65, (S)-2-(2-Benzyl-3-naphthalen-1-yl-propionylamino)-3-(1H-imidazol-4-yl)-propionic acid, methyl ester] | 25 | – | –
18 | – | – | CSCC[C@H](NC(=O)c1ccc(NC[C@@H](N)CS)cc1-c1ccccc1)C(=O)O [FTI-276] | – | – | blocks the growth in nude mice of a human lung carcinoma with a k-ras mutation
